Data on 19 compounds can be found in US9771358B2, “Dihydropyrimidine compounds and their application in pharmaceuticals” (SUNSHINE LAKE PHARMA CO., LTD., priority 2014, dated 2017).

This experiment deals with HBV. The experiment can be described thus: In-vitro anti-HBV activity in stable HBV-producing cell line (HepG2.2.15), HBV DNA by qPCR. In kind it is cell-based. To be noted: Hepatitis B virus, 168 h; HepG2.2.15 cells, HBV DNA in culture fluid, day 7, top concentration 16.4 μM. As to the method: HBV DNA contents in cell culture fluid were detected by the qPCR-based assay and 50% effective concentration (EC50) values of the compounds against HBV were calculated. Specific procedures are as follows:
HepG2.2.15 cells were seeded into each well of 96-well plates, 40,000 cells per well. Cells were treated with cell culture medium containing compounds with different concentrations for 24 hours after cell seeding. The final concentration of each compound was 16.4 μM in each well and each compound was diluted to desired concentration using 3-fold gradient dilution protocol, 9 diluted points in duplicate. The culture mediums containing the compounds were refreshed on day 4 post cell seeding. Culture media were collected from the HepG2.2.15 plates on day 7 post cell seeding followed by HBV DNA extraction.
HBV DNA extraction: The HBV DNA extraction was performed using QIAamp 96 DNA Blood Kit (QIAGEN 51161).
PCR for quantification: PCR mix was prepared according to PCR system. PCR mix was dispensed to 96-well optical reaction plates (special for quantification). The standard diluted proportionally was added. Then the sample was added; The plates were sealed with optical adhesive film; PCR system was performed according to programs.
Percentage of HBV inhibition of DNA replication by compound was calculated using the following equation: % Inh.=[1-HBV DNA quantity of sample/HBV DNA quantity of DMSO control]×100.
Calculating EC50 value of compounds to HBV replication: the EC50 values were calculated based on “four-parameter logistic equation” and using GraphPad Prism 5 analysis software.
A general note: Quantitative PCR measures a nucleic acid by following its amplification.

Turning to `CCOC(=O)C1=C(CN2CCOC(CCC(=O)O)C2)NC(c2nccs2)=NC1c1ccc(F)cc1Br` (racemic) [contrast 1, 3-(4-((6-(2-bromo-4-fluorophenyl)-5-(ethoxycarbonyl)-2-(thiazol-2-yl)-3,6-dihydropyrimidin-4-yl)methyl)morpholin-2-yl)propanoic acid, reference compound], it took 260 nM to reach a half-maximal effect (EC50).

Take `CCOC(=O)C1=C(CN2CCOC(CCC(=O)O)C2)NC(c2nccs2)=NC1c1ccc(F)cc1Cl` (racemic) [contrast 2, 3-(4-((6-(2-chloro-4-fluorophenyl)-5-(ethoxycarbonyl)-2-(thiazol-2-yl)-3,6-dihydropyrimidin-4-yl)methyl)morpholin-2-yl)propanoic acid, reference compound]: the EC50 (usually the midpoint of the concentration-response curve) came to 360 nM. This EC50 and that of the compound before are within 1.5-fold of each other.

`COC(=O)C1=C(CN2CCOC(CCC(=O)O)C2)NC(c2nccs2)=NC1c1ccc(F)cc1Cl` (racemic) [contrast 3, 3-(4-((6-(2-chloro-4-fluorophenyl)-5-(methoxycarbonyl)-2-(thiazol-2-yl)-3,6-dihydropyrimidin-4-yl)methyl)morpholin-2-yl)propanoic acid, reference compound] had an EC50 of 290 nM.

The compound `COC(=O)C1=C(CN2CCOC(CCC(=O)O)C2)NC(c2nccs2)=NC1c1ccc(F)cc1Br` (racemic) [contrast 4, 3-(4-((6-(2-bromo-4-fluorophenyl)-5-(methoxycarbonyl)-2-(thiazol-2-yl)-3,6-dihydropyrimidin-4-yl)methyl)morpholin-2-yl)propanoic acid, reference compound] yielded an EC50 of 250 nM.

`CCOC(=O)C1=C(CN2CCOC(CCC(=O)O)C2)NC(c2nccs2)=NC1c1ccc(Cl)cc1Cl` (racemic) [contrast 5, 3-(4-((6-(2,4-dichlorophenyl)-5-(ethoxycarbonyl)-2-(thiazol-2-yl)-3,6-dihydropyrimidin-4-yl)methyl)morpholin-2-yl)propanoic acid, reference compound]: the EC50 came to 230 nM.

In the case of `COC(=O)C1=C(CN2CCOC(CCC(=O)O)C2)NC(c2nccs2)=NC1c1ccc(Cl)cc1Cl` (racemic) [contrast 6, 3-(4-((6-(2,4-dichlorophenyl)-5-(methoxycarbonyl)-2-(thiazol-2-yl)-3,6-dihydropyrimidin-4-yl)methyl)morpholin-2-yl)propanoic acid, reference compound], the EC50 came out at 210 nM. The EC50 values of the last two compounds are within 1.5-fold of each other.

Turning to `CCOC(=O)C1=C(CN2CCOCC2CCC(=O)O)NC(c2nccs2)=NC1c1ccc(F)cc1Cl` (racemic) [contrast 7, 3-(4-((6-(2-chloro-4-fluorophenyl)-5-(ethoxycarbonyl)-2-(thiazol-2-yl)-3,6-dihydropyrimidin-4-yl)methyl)morpholin-3-yl)propanoic acid, reference compound], the EC50 was 92 nM.

As to `COC(=O)C1=C(CN2CCOCC2CCC(=O)O)NC(c2nccs2)=NC1c1ccc(F)cc1Cl` (racemic) [contrast 8, 3-(4-((6-(2-chloro-4-fluorophenyl)-5-(methoxycarbonyl)-2-(thiazol-2-yl)-3,6-dihydropyrimidin-4-yl)methyl)morpholin-3-yl)propanoic acid, reference compound], the EC50 amounted to 90 nM.

Consider `CCOC(=O)C1=C(CN2CCOCC2CCC(=O)O)NC(c2nccs2)=NC1c1ccc(Cl)cc1Cl` (racemic) [contrast 9, 3-(4-((6-(2,4-dichlorophenyl)-5-(ethoxycarbonyl)-2-(thiazol-2-yl)-3,6-dihydropyrimidin-4-yl)methyl)morpholin-3-yl)propanoic acid, reference compound], for which the EC50 came to 63 nM.

For the compound `COC(=O)C1=C(CN2CCOCC2CCC(=O)O)NC(c2nccs2)=NC1c1ccc(Cl)cc1Cl` (racemic) [contrast 10, 3-(4-((6-(2,4-dichlorophenyl)-5-(methoxycarbonyl)-2-(thiazol-2-yl)-3,6-dihydropyrimidin-4-yl)methyl)morpholin-3-yl)propanoic acid, reference compound], it took 59 nM to reach a half-maximal effect (EC50).

In the case of `CCOC(=O)C1=C(CN2CCOCC2CCC(=O)O)NC(c2nccs2)=NC1c1ccc(F)cc1Br` (racemic) [contrast 11, 3-(4-((6-(2-bromo-4-fluorophenyl)-5-(ethoxycarbonyl)-2-(thiazol-2-yl)-3,6-dihydropyrimidin-4-yl)methyl)morpholin-3-yl)propanoic acid, reference compound], a half-maximal effect (EC50) was put at 80 nM.

`COC(=O)C1=C(CN2CCOCC2CCC(=O)O)NC(c2nccs2)=NC1c1ccc(F)cc1Br` (racemic) [contrast 12, 3-(4-((6-(2-bromo-4-fluorophenyl)-5-(methoxycarbonyl)-2-(thiazol-2-yl)-3,6-dihydropyrimidin-4-yl)methyl)morpholin-3-yl)propanoic acid, reference compound] came in with an EC50 of 75 nM.

For `CCOC(=O)C1=C(CN2CCO[C@H](CC(C)C(=O)O)C2)NC(c2nccs2)=N[C@H]1c1ccc(F)cc1Br` (stereo partly drawn) [Example 3, 3-((R)-4-(((R)-6-(2-Bromo-4-fluorophenyl)-5-(ethoxycarbonyl)-2-(thiazol-2-yl)-3,6-dihydropyrimidin-4-yl)methyl)morpholin-2-yl)-2-methylpropanoic acid], the EC50 was found to be 135 nM.

On to `CCOC(=O)C1=C(CN2CCO[C@H](C(C)CC(=O)O)C2)NC(c2nccs2)=N[C@H]1c1ccc(F)cc1Br` (stereo partly drawn) [Example 4, 3-((R)-4-(((R)-6-(2-Bromo-4-fluorophenyl)-5-(ethoxycarbonyl)-2-(thiazol-2-yl)-3,6-dihydropyrimidin-4-yl)methyl)morpholin-2-yl)butanoic acid], for which the response was half-maximal at 116 nM (EC50).

As for `CCOC(=O)C1=C(CN2CCO[C@H](C)[C@H]2CCC(=O)O)NC(c2nccs2)=N[C@H]1c1ccc(F)cc1Br` [Example 5, 3-((2R,3R)-4-(((R)-6-(2-Bromo-4-fluorophenyl)-5-(ethoxycarbonyl)-2-(thiazol-2-yl)-3,6-dihydropyrimidin-4-yl)methyl)-2-methylmorpholin-3-yl)propanoic acid], a half-maximal response (EC50) required 306 nM.

Take `CCOC(=O)C1=C(CN2CCO[C@H](CCCCC(=O)O)C2)NC(c2nccs2)=N[C@H]1c1ccc(F)cc1Br` [Example 7, 5-((R)-4-(((R)-6-(2-Bromo-4-fluorophenyl)-5-(ethoxycarbonyl)-2-(thiazol-2-yl)-3,6-dihydropyrimidin-4-yl)methyl)morpholin-2-yl)pentanoic acid]: the 50% effective concentration (EC50) came to 72 nM. Against the preceding compound, the EC50 is about 4.2-fold lower.

As to `CCOC(=O)C1=C(CN2CCOC[C@H]2CCC(=O)O)NC(c2nccs2)=N[C@H]1c1ccc(F)cc1Br` [Example 8, 3-((R)-4-(((R)-6-(2-Bromo-4-fluorophenyl)-5-(ethoxycarbonyl)-2-(thiazol-2-yl)-3,6-dihydropyrimidin-4-yl)methy)morpholin-3-yl)propanoic acid], a half-maximal effect (EC50) was put at 25 nM.

Consider `COC(=O)C1=C(CN2CCOC[C@H]2CCC(=O)O)NC(c2nccs2)=N[C@H]1c1ccc(F)cc1Br` [Example 14, 3-((R)-4-(((R)-6-(2-Bromo-4-fluorophenyl)-5-(methoxycarbonyl)-2-(thiazol-2-yl)-3,6-dihydropyrimidin-4-yl)methyl)morpholin-3-yl)propanoic acid], for which the EC50 amounted to 140 nM. This EC50 lies about 5.6-fold higher than the previous one.

In turn, `CCOC(=O)C1=C(CN2CCOC[C@@H]2CCC(=O)O)NC(c2nccs2)=N[C@H]1c1ccc(F)cc1Br` [Example 15, 3-((S)-4-(((R)-6-(2-Bromo-4-fluorophenyl)-5-(ethoxycarbonyl)-2-(thiazol-2-yl)-3,6-dihydropyrimidin-4-yl)methyl)morpholin-3-yl)propanoic acid] showed a concentration giving a half-maximal response (EC50) of 7.94 nM.
